In patent publication US11136329B2, “JAK inhibitors” (Vimalan Biosciences, Inc., priority 2019, dated 2021):

Tests used:
Format in all cases: biochemical
JAK3 = JAK3 (Homo sapiens (Human), UniProt P52333); assay: JAK/TYK2 assay (Kinase Glo luminescence), JAK3; conditions: 1.5 nM enzyme, 2 uM ATP, 4 uM pEY, 1 hr
Experimental: (§1) 10 mM test compound stock or 1 mM control compound stock (tofocitinib, ruxolitinib or staurosporine) in DMSO was diluted to 0.4 mM in DMSO. A 3-fold series dilution was then performed in DMSO to generate 10 different compound concentrations. The assay was carried out in 384-well white plate. 0.5 uL of 40× compound DMSO solution at different concentrations was mixed with 10 uL 2× enzyme prepared in reaction buffer (20 mM HEPES, 10 mM MgCl2, 0.01% Tween, 1 mM DTT, pH 7.5). 10 uL 2× substrate mixture prepared in reaction buffer was then added to start the reaction. A short spin was done to settle down all solutions to the bottom of the plate. Final concentrations of test compound in the reaction mixture were 10000, 3333, 1111, 370, 123, 41.2, 13.7, 4.57, 1.52and 0.51 nM. Concentrations of control compound were ten times less. Enzymatic reaction was conducted at 25° C. for 1-2 hours. 10 uL of Kinase Glo Reagents was added to stop the reaction and generate the luminescent signal which was measured using Envision. Luminescence signal was inversely related to kinase activity. […] The mixture without any compound was the positive control.

JAK2 = JAK2 (Homo sapiens (Human), UniProt O60674); assay: JAK/TYK2 assay (Kinase Glo luminescence), JAK2; conditions: 0.8 nM enzyme, 2 uM ATP, 4 uM pEY, 1 hr
Chain of JAK2 (O60674 whole entry, species assumed): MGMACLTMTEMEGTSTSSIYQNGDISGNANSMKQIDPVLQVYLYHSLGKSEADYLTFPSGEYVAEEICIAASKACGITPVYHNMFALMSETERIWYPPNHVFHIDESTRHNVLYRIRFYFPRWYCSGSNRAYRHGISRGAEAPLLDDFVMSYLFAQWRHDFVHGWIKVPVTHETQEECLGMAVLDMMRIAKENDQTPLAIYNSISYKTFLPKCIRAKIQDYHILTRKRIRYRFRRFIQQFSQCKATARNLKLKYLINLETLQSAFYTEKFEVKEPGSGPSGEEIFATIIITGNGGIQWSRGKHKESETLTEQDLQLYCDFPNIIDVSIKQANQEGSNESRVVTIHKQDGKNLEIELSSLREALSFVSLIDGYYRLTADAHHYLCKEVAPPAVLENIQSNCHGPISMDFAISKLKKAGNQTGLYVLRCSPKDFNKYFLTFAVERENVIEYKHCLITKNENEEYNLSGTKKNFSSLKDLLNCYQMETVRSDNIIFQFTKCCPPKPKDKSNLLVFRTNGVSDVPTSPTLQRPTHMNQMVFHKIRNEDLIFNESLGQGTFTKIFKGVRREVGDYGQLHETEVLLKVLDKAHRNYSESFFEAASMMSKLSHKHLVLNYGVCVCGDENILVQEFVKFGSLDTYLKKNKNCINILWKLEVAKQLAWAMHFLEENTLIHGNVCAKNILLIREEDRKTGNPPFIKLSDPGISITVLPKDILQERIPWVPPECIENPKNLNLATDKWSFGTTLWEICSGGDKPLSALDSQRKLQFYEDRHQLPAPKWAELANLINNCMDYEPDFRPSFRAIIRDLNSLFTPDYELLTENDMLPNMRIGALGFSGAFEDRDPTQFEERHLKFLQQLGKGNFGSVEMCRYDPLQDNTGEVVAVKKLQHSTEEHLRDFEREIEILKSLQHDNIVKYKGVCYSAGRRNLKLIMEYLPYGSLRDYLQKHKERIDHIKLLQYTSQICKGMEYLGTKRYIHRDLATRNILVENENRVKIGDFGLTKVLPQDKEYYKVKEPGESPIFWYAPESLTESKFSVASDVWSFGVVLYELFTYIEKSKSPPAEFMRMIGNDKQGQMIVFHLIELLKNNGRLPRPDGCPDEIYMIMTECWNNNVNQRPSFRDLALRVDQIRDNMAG
Experimental: as §1

JAK1 = JAK1 (Homo sapiens (Human), UniProt P23458); assay: JAK/TYK2 assay (Kinase Glo luminescence), JAK1; conditions: 7.5 nM enzyme, 2 uM ATP, 30 uM IRS-1, 1 hr
Chain of JAK1 (P23458 whole entry, species assumed): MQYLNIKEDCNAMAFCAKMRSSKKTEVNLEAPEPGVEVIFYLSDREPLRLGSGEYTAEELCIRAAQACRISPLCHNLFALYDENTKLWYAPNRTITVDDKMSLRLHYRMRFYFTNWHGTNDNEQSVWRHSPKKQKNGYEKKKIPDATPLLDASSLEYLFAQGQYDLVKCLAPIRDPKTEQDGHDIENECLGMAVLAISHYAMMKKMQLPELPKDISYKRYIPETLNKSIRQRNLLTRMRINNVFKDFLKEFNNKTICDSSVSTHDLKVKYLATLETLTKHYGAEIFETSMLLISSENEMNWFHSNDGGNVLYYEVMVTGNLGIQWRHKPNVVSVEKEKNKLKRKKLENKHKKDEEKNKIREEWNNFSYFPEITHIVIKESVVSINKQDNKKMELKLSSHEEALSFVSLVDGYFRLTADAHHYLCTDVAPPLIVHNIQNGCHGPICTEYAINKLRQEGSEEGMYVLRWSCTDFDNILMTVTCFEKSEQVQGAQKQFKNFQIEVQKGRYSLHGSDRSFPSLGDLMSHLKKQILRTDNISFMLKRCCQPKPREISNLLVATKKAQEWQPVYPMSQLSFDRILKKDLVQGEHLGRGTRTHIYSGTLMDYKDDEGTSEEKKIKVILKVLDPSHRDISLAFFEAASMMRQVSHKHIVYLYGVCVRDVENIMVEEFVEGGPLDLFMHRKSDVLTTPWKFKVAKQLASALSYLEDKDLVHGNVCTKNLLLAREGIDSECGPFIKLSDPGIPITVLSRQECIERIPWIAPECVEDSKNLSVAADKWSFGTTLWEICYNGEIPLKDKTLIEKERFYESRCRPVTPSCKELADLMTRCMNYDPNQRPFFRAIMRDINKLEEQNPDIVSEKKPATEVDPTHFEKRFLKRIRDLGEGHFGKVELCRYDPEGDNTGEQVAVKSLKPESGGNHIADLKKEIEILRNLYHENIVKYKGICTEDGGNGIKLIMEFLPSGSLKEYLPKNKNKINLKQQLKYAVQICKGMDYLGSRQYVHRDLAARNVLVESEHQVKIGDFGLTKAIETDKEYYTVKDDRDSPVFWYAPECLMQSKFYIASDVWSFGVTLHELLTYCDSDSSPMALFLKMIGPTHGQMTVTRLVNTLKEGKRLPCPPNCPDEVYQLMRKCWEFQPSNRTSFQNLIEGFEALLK
Experimental: as §1

TYK2 = TYK2 (Homo sapiens (Human), UniProt P29597); assay: JAK/TYK2 assay (Kinase Glo luminescence), TYK2; conditions: 9 nM enzyme, 2 uM ATP, 30 uM IRS-1, 1 hr
Chain of TYK2 (P29597 whole entry, species assumed): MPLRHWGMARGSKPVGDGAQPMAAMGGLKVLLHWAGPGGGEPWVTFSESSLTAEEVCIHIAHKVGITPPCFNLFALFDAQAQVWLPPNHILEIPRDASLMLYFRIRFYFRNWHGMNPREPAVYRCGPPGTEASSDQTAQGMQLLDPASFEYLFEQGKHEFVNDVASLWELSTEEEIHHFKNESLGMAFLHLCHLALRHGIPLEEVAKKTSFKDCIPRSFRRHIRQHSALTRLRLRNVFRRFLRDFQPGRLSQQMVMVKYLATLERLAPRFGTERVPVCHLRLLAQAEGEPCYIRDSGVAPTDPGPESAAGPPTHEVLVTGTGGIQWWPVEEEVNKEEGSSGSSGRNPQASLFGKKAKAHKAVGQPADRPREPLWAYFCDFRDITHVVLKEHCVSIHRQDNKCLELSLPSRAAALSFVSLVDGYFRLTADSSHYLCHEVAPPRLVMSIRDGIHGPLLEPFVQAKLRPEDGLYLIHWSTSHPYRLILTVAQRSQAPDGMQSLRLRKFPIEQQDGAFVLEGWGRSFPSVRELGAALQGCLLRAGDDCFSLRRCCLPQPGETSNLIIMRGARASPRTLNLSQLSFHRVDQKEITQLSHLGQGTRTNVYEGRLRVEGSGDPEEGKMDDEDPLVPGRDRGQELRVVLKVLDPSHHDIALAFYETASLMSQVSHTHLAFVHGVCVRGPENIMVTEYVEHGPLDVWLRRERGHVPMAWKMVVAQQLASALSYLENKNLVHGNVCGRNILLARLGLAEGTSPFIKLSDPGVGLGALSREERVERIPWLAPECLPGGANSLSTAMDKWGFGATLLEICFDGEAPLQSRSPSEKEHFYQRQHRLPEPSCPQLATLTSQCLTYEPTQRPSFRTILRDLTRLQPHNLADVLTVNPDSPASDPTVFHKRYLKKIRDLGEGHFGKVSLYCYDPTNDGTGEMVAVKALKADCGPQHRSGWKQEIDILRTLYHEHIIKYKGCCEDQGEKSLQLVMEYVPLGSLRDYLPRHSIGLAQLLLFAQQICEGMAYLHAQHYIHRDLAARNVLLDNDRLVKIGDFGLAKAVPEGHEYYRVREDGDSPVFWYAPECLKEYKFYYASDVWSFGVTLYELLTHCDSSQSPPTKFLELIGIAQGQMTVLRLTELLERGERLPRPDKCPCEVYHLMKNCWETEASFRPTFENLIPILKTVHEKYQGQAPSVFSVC
Experimental: as §1

Chain of JAK3 (P52333 whole entry, species assumed): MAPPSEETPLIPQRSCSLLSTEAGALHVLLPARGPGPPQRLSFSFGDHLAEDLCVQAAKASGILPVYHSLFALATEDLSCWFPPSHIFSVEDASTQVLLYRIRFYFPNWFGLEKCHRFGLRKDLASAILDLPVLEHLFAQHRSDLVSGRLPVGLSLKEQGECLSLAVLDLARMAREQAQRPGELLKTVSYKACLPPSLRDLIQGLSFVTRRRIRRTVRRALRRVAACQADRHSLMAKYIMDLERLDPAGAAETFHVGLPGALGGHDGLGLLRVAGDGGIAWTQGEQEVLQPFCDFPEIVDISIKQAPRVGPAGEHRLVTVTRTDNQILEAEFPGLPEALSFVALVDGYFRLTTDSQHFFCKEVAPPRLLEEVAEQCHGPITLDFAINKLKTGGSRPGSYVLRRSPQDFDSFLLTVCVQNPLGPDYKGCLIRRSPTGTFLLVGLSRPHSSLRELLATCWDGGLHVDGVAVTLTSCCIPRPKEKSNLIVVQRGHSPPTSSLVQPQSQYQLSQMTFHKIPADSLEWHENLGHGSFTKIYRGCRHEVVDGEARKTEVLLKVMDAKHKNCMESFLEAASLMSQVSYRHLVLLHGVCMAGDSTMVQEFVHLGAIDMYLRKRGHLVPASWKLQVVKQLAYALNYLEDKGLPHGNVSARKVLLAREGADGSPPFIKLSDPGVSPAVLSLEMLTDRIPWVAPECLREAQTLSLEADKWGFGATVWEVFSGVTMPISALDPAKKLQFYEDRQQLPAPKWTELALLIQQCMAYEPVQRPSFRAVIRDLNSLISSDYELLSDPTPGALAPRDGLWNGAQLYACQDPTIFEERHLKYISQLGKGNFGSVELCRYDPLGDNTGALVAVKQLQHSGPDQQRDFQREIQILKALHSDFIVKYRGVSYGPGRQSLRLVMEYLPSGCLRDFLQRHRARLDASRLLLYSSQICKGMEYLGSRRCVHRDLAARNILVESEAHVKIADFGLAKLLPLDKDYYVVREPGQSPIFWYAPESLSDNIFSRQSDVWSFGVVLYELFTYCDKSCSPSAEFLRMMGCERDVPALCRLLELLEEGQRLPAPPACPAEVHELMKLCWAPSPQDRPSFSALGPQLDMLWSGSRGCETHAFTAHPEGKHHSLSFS

| IC50 (JAK3) [nM] | IC50 (JAK2) [nM] | IC50 (JAK1) [nM] | IC50 (TYK2) [nM] | Structure (SMILES) |
| --- | --- | --- | --- | --- |
| < 100 | < 100 | < 100 | < 100 | CCOC(=O)C(C)n1cc(Nc2ncc3ccn(C[C@H]4CC[C@H](O)CC4)c3n2)cn1 (some centres unmarked) [Compound 120, ethyl 2-(4-((7-(((1r,4r)-4-hydroxycyclohexyl)methyl)-7H-pyrrolo[2,3-d]pyrimidin-2-yl)amino)-1H-pyrazol-1-yl)propanoate] |
| < 100 | < 100 | < 100 | < 100 | CCC(CC)Cn1ccc2cnc(Nc3cnn(CC(=O)OCCC#N)c3)nc21 [Compound 89, 2-cyanoethyl 2-(4-((7-(2-ethylbutyl)-7H-pyrrolo[2,3-d]pyrimidin-2-yl)amino)-1H-pyrazol-1-yl)acetate] |
| < 100 | < 100 | < 100 | < 100 | CCC(Cn1ccc2cnc(Nc3cnn(CC(=O)OC[C@@H](C)O)c3)nc21)C(C)C (stereo partly drawn) [Compound 110, (R)-2-hydroxypropyl 2-(4-((7-(2-ethyl-3-methylbutyl)-7H-pyrrolo[2,3-d]pyrimidin-2-yl)amino)-1H-pyrazol-1-yl)acetate] |
| < 100 | < 100 | < 100 | < 100 | CCOC(=O)Cn1cc(Nc2ncc3ccn(CC4CCC(C)CC4)c3n2)cn1 (centres unmarked) [Compound 46, ethyl 2-(4-((7-((4-methylcyclohexyl)methyl)-7H-pyrrolo[2,3-d]pyrimidin-2-yl)amino)-1H-pyrazol-1-yl)acetate] |
| < 100 | < 100 | < 100 | < 100 | CCOC(=O)Cn1cc(Nc2ncc3ccn(CC4CCCC(F)(F)C4)c3n2)cn1 (centres unmarked) [Compound 36, ethyl 2-(4-((7-((3,3-difluorocyclohexyl)methyl)-7H-pyrrolo[2,3-d]pyrimidin-2-yl)amino)-1H-pyrazol-1-yl)acetate] |
| 100 to 1000 | – | – | – | CCOC(=O)c1ccc(Nc2ncc3ccn(Cc4ccsc4)c3n2)cc1 [Compound 12, ethyl 4-((7-(thiophen-3-ylmethyl)-7H-pyrrolo[2,3-d]pyrimidin-2-yl)amino)benzoate] |
| – | < 100 | 100 to 1000 | < 100 | CCOC(=O)Cn1cc(Nc2ncc3ccn(CC4CCSCC4)c3n2)cn1 [Compound 126, ethyl 2-(4-((7-((tetrahydro-2H-thiopyran-4-yl)methyl)-7H-pyrrolo[2,3-d]pyrimidin-2-yl)amino)-1H-pyrazol-1-yl)acetate] |
| 1000 to 10000 | 1000 to 10000 | 1000 to 10000 | – | CCOC(=O)c1nc(Cn2ccc3cnc(Nc4cnn(C)c4)nc32)cs1 [Compound 56] |
| < 100 | – | – | – | CCOC(=O)Cn1cc(Nc2ncc3c(Cl)cn(CC4CCCCC4)c3n2)cn1 [Compound 60, ethyl 2-(4-((5-chloro-7-(cyclohexylmethyl)-7H-pyrrolo[2,3-d]pyrimidin-2-yl)amino)-1H-pyrazol-1-yl)acetate] |
| < 100 | – | – | – | CCOC(=O)Cn1cc(Nc2ncc3ccn(CC4CC4)c3n2)cn1 [Compound 25, ethyl 2-(4-((7-(cyclopropylmethyl)-7H-pyrrolo[2,3-d]pyrimidin-2-yl)amino)-1H-pyrazol-1-yl)acetate] |
| – | < 100 | 100 to 1000 | < 100 | CCOC(=O)Cn1cc(Nc2ncc3ccn(C[C@H]4CC[C@H](NC)CC4)c3n2)cn1 [Compound 123] |

Continued, compound first:

| Structure (SMILES) | IC50 (JAK3) [nM] | IC50 (JAK2) [nM] | IC50 (JAK1) [nM] | IC50 (TYK2) [nM] |
| --- | --- | --- | --- | --- |
| CCOC(=O)Cn1cc(Nc2ncc3ccn(C[C@H]4CC[C@@H](OC)CC4)c3n2)cn1 [Compound 128, ethyl 2-(4-((7-(((1s,4s)-4-methoxycyclohexyl)methyl)-7H-pyrrolo[2,3-d]pyrimidin-2-yl)amino)-1H-pyrazol-1-yl)acetate] | 100 to 1000 | 100 to 1000 | 1000 to 10000 | 100 to 1000 |
| CC(C(=O)O)n1cc(Nc2ncc3ccn(C[C@H]4CC[C@H](O)CC4)c3n2)cn1 (some centres unmarked) [Compound 116, 2-(4-((7-(((1r,4r)-4-hydroxycyclohexyl)methyl)-7H-pyrrolo[2,3-d]pyrimidin-2-yl)amino)-1H-pyrazol-1-yl)propanoic acid] | < 100 | < 100 | < 100 | < 100 |
| CC[C@H](Cn1ccc2cnc(Nc3cnn(CC(=O)OC(C)C)c3)nc21)C(C)C [Compound 134, isopropyl (S)-2-(4-((7-(2-ethyl-3-methylbutyl)-7H-pyrrolo[2,3-d]pyrimidin-2-yl)amino)-1H-pyrazol-1-yl)acetate] | < 100 | < 100 | < 100 | < 100 |
| CC[C@H](Cn1ccc2cnc(Nc3cnn(C4CCOC4=O)c3)nc21)C(C)C (stereo partly drawn) [Compound 82, 3-(4-((7-((S)-2-ethyl-3-methylbutyl)-7H-pyrrolo[2,3-d]pyrimidin-2-yl)amino)-1H-pyrazol-1-yl)dihydrofuran-2(3H)-one] | < 100 | < 100 | < 100 | < 100 |
| CCOC(=O)CCn1cc(Nc2ncc3ccn(C[C@H]4CC[C@H](O)CC4)c3n2)cn1 [Compound 121, ethyl 3-(4-((7-(((1r,4r)-4-hydroxycyclohexyl)methyl)-7H-pyrrolo[2,3-d]pyrimidin-2-yl)amino)-1H-pyrazol-1-yl)propanoate] | < 100 | < 100 | < 100 | < 100 |
| CC[C@H](Cn1ccc2cnc(Nc3cnn(C(CCO)C(=O)O)c3)nc21)C(C)C (stereo partly drawn) [Compound 136, 2-(4-((7-((S)-2-ethyl-3-methylbutyl)-7H-pyrrolo[2,3-d]pyrimidin-2-yl)amino)-1H-pyrazol-1-yl)-4-hydroxybutanoic acid] | < 100 | < 100 | < 100 | < 100 |
| CCC(Cn1ccc2cnc(Nc3cnn(CC(=O)OCC(O)CO)c3)nc21)C(C)C (centres unmarked) [Compound 111, 2,3-dihydroxypropyl 2-(4-((7-(2-ethyl-3-methylbutyl)-7H-pyrrolo[2,3-d]pyrimidin-2-yl)amino)-1H-pyrazol-1-yl)acetate] | < 100 | < 100 | < 100 | < 100 |
| CCOC(=O)Cn1cc(Nc2ncc3ccn(CC4CCC4)c3n2)cn1 [Compound 14, ethyl 2-(4-((7-(cyclobutylmethyl)-7H-pyrrolo[2,3-d]pyrimidin-2-yl)amino)-1H-pyrazol-1-yl)acetate] | < 100 | – | – | – |
| CCOC(=O)Cn1ccc2cnc(Nc3cnn(C)c3)nc21 [Compound 57, ethyl 2-(2-((1-methyl-1H-pyrazol-4-yl)amino)-7H-pyrrolo[2,3-d]pyrimidin-7-yl)acetate] | 1000 to 10000 | 100 to 1000 | 1000 to 10000 | – |
| C=CC(=O)Nc1cccc(Cn2ccc3cnc(Nc4cnn(CC(=O)OCC)c4)nc32)c1 [Compound 95, ethyl 2-(4-((7-(3-acrylamidobenzyl)-7H-pyrrolo[2,3-d]pyrimidin-2-yl)amino)-1H-pyrazol-1-yl)acetate] | 100 to 1000 | 100 to 1000 | 100 to 1000 | – |
| CCOC(=O)Cn1cc(Nc2ncc3ccn(CC4CCS(=O)(=O)CC4)c3n2)cn1 [Compound 125, ethyl 2-(4-((7-((1,1-dioxidotetrahydro-2H-thiopyran-4-yl)methyl)-7H-pyrrolo[2,3-d]pyrimidin-2-yl)amino)-1H-pyrazol-1-yl)acetate] | – | 1000 to 10000 | 1000 to 10000 | 100 to 1000 |
| CCOC(=O)c1ccc(Cn2ccc3cnc(Nc4cnn(C)c4)nc32)s1 [Compound 58, ethyl 5-((2-((1-methyl-1H-pyrazol-4-yl)amino)-7H-pyrrolo[2,3-d]pyrimidin-7-yl)methyl)thiophene-2-carboxylate] | 1000 to 10000 | – | – | – |
